Converted amounts (≈) assume the structure as drawn. The source made the active and inactive calls. The rule behind the calls is not given here.
organism: Mus musculus; assay: Inhibition of JNK phosphorylation in LPS-stimulated mouse RAW264.7 cells at 2.5 to 10 ug/ml preincubated for 1 hr followed by LPS challenge measured after 24 hrs by Western blot method; conditions: not given

SMILES | inhibition
COc1ccc(CCCc2ccc(OC)c(OC)c2)c(O)c1 | Active

system: RAW264.7; assay: Antiinflammatory activity in mouse RAW264.7 cells assessed as inhibition of LPS induced iNOS-dependent nitric oxide production at 1.25 ug/ml after 24 hrs by Griess assay relative to control; format: functional; conditions: RAW264.7, 24 h

SMILES | inhibition at 1.25 µg/mL [%]
COc1ccc(CCCc2ccc(OC)c(OC)c2)c(O)c1 | 29.6
COc1ccc(CCCc2ccc(OC)c(OC)c2OC)c(O)c1 | 33.3
COc1ccc(CCC(=O)c2cccc(O)c2)c(OC)c1 | 7.9
COc1ccc(CCCc2ccc(OC)c(OC)c2)cc1 | 12.9
COc1ccc(CCCc2ccc3c(c2)OCO3)c(O)c1 | 32.6
COc1ccc(CCC(=O)c2cccc(O)c2)cc1OC | 5.4
Oc1ccc(CCCc2ccc3c(c2)OCO3)cc1 | 33

system: not listed separately; assay: Cytotoxicity against LPS-stimulated mouse RAW264.7 cells assessed as cell viability at 10 ug/ml after 24 hrs by MTT assay relative to control; format: cell-based; conditions: LPS-stimulated RAW264.7 cells, read-out: Activity

SMILES | viability at 24 h, 10 ug/ml [%]
COc1ccc(CCCc2ccc(OC)c(OC)c2)c(O)c1 | 44.5
COc1ccc(CCCc2ccc(OC)c(OC)c2OC)c(O)c1 | 36.7
COc1ccc(CCC(=O)c2cccc(O)c2)c(OC)c1 | 74.8
COc1ccc(CCCc2ccc(OC)c(OC)c2)cc1 | 95.1
COc1ccc(CCCc2ccc3c(c2)OCO3)c(O)c1 | 15.6
COc1ccc(CCC(=O)c2cccc(O)c2)cc1OC | 97.9
Oc1ccc(CCCc2ccc3c(c2)OCO3)cc1 | 92.6

system: not listed separately; assay: Cytotoxicity against LPS-stimulated mouse RAW264.7 cells assessed as cell viability at 1.25 ug/ml after 24 hrs by MTT assay relative to control; format: cell-based; conditions: LPS-stimulated RAW264.7 cells, read-out: Activity

SMILES | viability at 24 h, 1.25 ug/ml [%]
COc1ccc(CCCc2ccc(OC)c(OC)c2)c(O)c1 | 97.9
COc1ccc(CCCc2ccc(OC)c(OC)c2OC)c(O)c1 | 96.3
COc1ccc(CCC(=O)c2cccc(O)c2)c(OC)c1 | 92.1
COc1ccc(CCCc2ccc(OC)c(OC)c2)cc1 | 100
COc1ccc(CCCc2ccc3c(c2)OCO3)c(O)c1 | 97.5
COc1ccc(CCC(=O)c2cccc(O)c2)cc1OC | 101
Oc1ccc(CCCc2ccc3c(c2)OCO3)cc1 | 99.2

system: RAW264.7; assay: Antiinflammatory activity in mouse RAW264.7 cells assessed as inhibition of LPS induced iNOS-dependent nitric oxide production at 10 ug/ml after 24 hrs by Griess assay relative to control; format: functional; conditions: RAW264.7, 24 h

SMILES | inhibition at 10 µg/mL [%]
COc1ccc(CCCc2ccc(OC)c(OC)c2)c(O)c1 | 75.5
COc1ccc(CCCc2ccc(OC)c(OC)c2OC)c(O)c1 | 68.1
COc1ccc(CCC(=O)c2cccc(O)c2)c(OC)c1 | 52.3
COc1ccc(CCCc2ccc(OC)c(OC)c2)cc1 | 55.4
COc1ccc(CCCc2ccc3c(c2)OCO3)c(O)c1 | 85.9
COc1ccc(CCC(=O)c2cccc(O)c2)cc1OC | 55.8
Oc1ccc(CCCc2ccc3c(c2)OCO3)cc1 | 69.4

system: RAW264.7; assay: Antiinflammatory activity in mouse RAW264.7 cells assessed as inhibition of LPS induced iNOS-dependent nitric oxide production after 24 hrs by Griess assay; format: functional, cell-based; conditions: RAW264.7, 24 h

SMILES | IC50 [µg/mL]
COc1ccc(CCCc2ccc(OC)c(OC)c2)c(O)c1 | 1.97 (≈ 6.52 µM)
COc1ccc(CCCc2ccc(OC)c(OC)c2OC)c(O)c1 | 4.03 (≈ 12.1 µM)
COc1ccc(CCC(=O)c2cccc(O)c2)c(OC)c1 | 9.42 (≈ 32.9 µM)
COc1ccc(CCCc2ccc(OC)c(OC)c2)cc1 | 8.69 (≈ 30.3 µM)
COc1ccc(CCCc2ccc3c(c2)OCO3)c(O)c1 | 4.12 (≈ 14.4 µM)
COc1ccc(CCC(=O)c2cccc(O)c2)cc1OC | 6.58 (≈ 23 µM)
Oc1ccc(CCCc2ccc3c(c2)OCO3)cc1 | 5.18 (≈ 20.2 µM)

system: RAW264.7; assay: Effect on non-phosphorylated ERK in LPS-stimulated mouse RAW264.7 cells at 2.5 to 10 ug/ml preincubated for 1 hr followed by LPS challenge measured after 24 hrs by Western blot method; format: cell-based; conditions: raw264.7, 24 h

SMILES | Activity
COc1ccc(CCCc2ccc(OC)c(OC)c2)c(O)c1 | Non-Toxic

system: RAW264.7; assay: Inhibition of COX2 expression in LPS-stimulated mouse RAW264.7 cells at 2.5 to 10 ug/ml after 24 hrs by Western blot method; format: functional, cell-based; conditions: not given

SMILES | inhibition
COc1ccc(CCCc2ccc(OC)c(OC)c2)c(O)c1 | Active

system: RAW264.7; assay: Effect on non-phosphorylated JNK in LPS-stimulated mouse RAW264.7 cells at 2.5 to 10 ug/ml preincubated for 1 hr followed by LPS challenge measured after 24 hrs by Western blot method; format: cell-based; conditions: raw264.7, 24 h

SMILES | Activity
COc1ccc(CCCc2ccc(OC)c(OC)c2)c(O)c1 | Non-Toxic

system: RAW264.7; assay: Inhibition of iNOS expression in LPS-stimulated mouse RAW264.7 cells after 24 hrs by Western blot method; format: functional, cell-based; conditions: not given

SMILES | inhibition
COc1ccc(CCCc2ccc(OC)c(OC)c2)c(O)c1 | Dose-dependent effect

organism: Mus musculus; assay: Inhibition of ERK phosphorylation in LPS-stimulated mouse RAW264.7 cells at 2.5 to 10 ug/ml preincubated for 1 hr followed by LPS challenge measured after 24 hrs by Western blot method; conditions: not given

SMILES | inhibition
COc1ccc(CCCc2ccc(OC)c(OC)c2)c(O)c1 | Active

system: not listed separately; assay: Cytotoxicity against LPS-stimulated mouse RAW264.7 cells assessed as cell viability at 2.5 ug/ml after 24 hrs by MTT assay relative to control; format: cell-based; conditions: LPS-stimulated RAW264.7 cells, read-out: Activity

SMILES | viability at 24 h, 2.5 ug/ml [%]
COc1ccc(CCCc2ccc(OC)c(OC)c2)c(O)c1 | 91.7
COc1ccc(CCCc2ccc(OC)c(OC)c2OC)c(O)c1 | 95.5
COc1ccc(CCC(=O)c2cccc(O)c2)c(OC)c1 | 88.5
COc1ccc(CCCc2ccc(OC)c(OC)c2)cc1 | 100
COc1ccc(CCCc2ccc3c(c2)OCO3)c(O)c1 | 95.3
COc1ccc(CCC(=O)c2cccc(O)c2)cc1OC | 98.9
Oc1ccc(CCCc2ccc3c(c2)OCO3)cc1 | 95.7

system: not listed separately; assay: Cytotoxicity against LPS-stimulated mouse RAW264.7 cells assessed as cell viability at 5 ug/ml after 24 hrs by MTT assay relative to control; format: cell-based; conditions: LPS-stimulated RAW264.7 cells, read-out: Activity

SMILES | viability at 24 h, 5 ug/ml [%]
COc1ccc(CCCc2ccc(OC)c(OC)c2)c(O)c1 | 88.9
COc1ccc(CCCc2ccc(OC)c(OC)c2OC)c(O)c1 | 84.5
COc1ccc(CCC(=O)c2cccc(O)c2)c(OC)c1 | 88.8
COc1ccc(CCCc2ccc(OC)c(OC)c2)cc1 | 96.9
COc1ccc(CCCc2ccc3c(c2)OCO3)c(O)c1 | 71.4
COc1ccc(CCC(=O)c2cccc(O)c2)cc1OC | 98
Oc1ccc(CCCc2ccc3c(c2)OCO3)cc1 | 94.5

system: RAW264.7; assay: Antiinflammatory activity in mouse RAW264.7 cells assessed as inhibition of LPS induced iNOS-dependent nitric oxide production at 5 ug/ml after 24 hrs by Griess assay relative to control; format: functional; conditions: RAW264.7, 24 h

SMILES | inhibition at 5 µg/mL [%]
COc1ccc(CCCc2ccc(OC)c(OC)c2)c(O)c1 | 69.2
COc1ccc(CCCc2ccc(OC)c(OC)c2OC)c(O)c1 | 56.8
COc1ccc(CCC(=O)c2cccc(O)c2)c(OC)c1 | 25.4
COc1ccc(CCCc2ccc(OC)c(OC)c2)cc1 | 28.6
COc1ccc(CCCc2ccc3c(c2)OCO3)c(O)c1 | 54.1
COc1ccc(CCC(=O)c2cccc(O)c2)cc1OC | 46.2
Oc1ccc(CCCc2ccc3c(c2)OCO3)cc1 | 48.9

system: RAW264.7; assay: Antiinflammatory activity in mouse RAW264.7 cells assessed as inhibition of LPS induced iNOS-dependent nitric oxide production at 2.5 ug/ml after 24 hrs by Griess assay relative to control; format: functional; conditions: RAW264.7, 24 h

SMILES | inhibition at 2.5 µg/mL [%]
COc1ccc(CCCc2ccc(OC)c(OC)c2)c(O)c1 | 60.5
COc1ccc(CCCc2ccc(OC)c(OC)c2OC)c(O)c1 | 34.9
COc1ccc(CCC(=O)c2cccc(O)c2)c(OC)c1 | 17.1
COc1ccc(CCCc2ccc(OC)c(OC)c2)cc1 | 15.1
COc1ccc(CCCc2ccc3c(c2)OCO3)c(O)c1 | 39.4
COc1ccc(CCC(=O)c2cccc(O)c2)cc1OC | 18.6
Oc1ccc(CCCc2ccc3c(c2)OCO3)cc1 | 37.7

system: RAW264.7; assay: Inhibition of IkappaB-alpha expression in LPS-stimulated mouse RAW264.7 cells at 2.5 to 10 ug/ml preincubated for 1 hr followed by LPS challenge measured after 24 hrs by Western blot method; format: functional, cell-based; conditions: not given

SMILES | inhibition
COc1ccc(CCCc2ccc(OC)c(OC)c2)c(O)c1 | inactive

biological target: MAP kinase p38 (Mus musculus) (UniProt P47811+O08911+Q9WUI1+Q9Z1B7); assay: Inhibition of p38 phosphorylation in LPS-stimulated mouse RAW264.7 cells at 2.5 to 10 ug/ml preincubated for 1 hr followed by LPS challenge measured after 24 hrs by Western blot method; conditions: not given

SMILES | inhibition
COc1ccc(CCCc2ccc(OC)c(OC)c2)c(O)c1 | Active

system: RAW264.7; assay: Effect on non-phosphorylated p38 in LPS-stimulated mouse RAW264.7 cells at 2.5 to 10 ug/ml preincubated for 1 hr followed by LPS challenge measured after 24 hrs by Western blot method; format: cell-based; conditions: raw264.7, 24 h

SMILES | Activity
COc1ccc(CCCc2ccc(OC)c(OC)c2)c(O)c1 | Non-Toxic

Source: ChEMBL document CHEMBL4004877, “Synthesis and biological evaluation of chalcone, dihydrochalcone, and 1,3-diarylpropane analogs as anti-inflammatory agents” (Bioorg Med Chem Lett, 2017)
